Results reported in patent US20050209339A1, “Methods for the treatment of sinusitis” (priority 2002, published 2005).

Columns and labels:
[1] = test system: chronic rhinosinusitis; experiment: double-blind placebo-controlled clinical trial in chronic rhinosinusitis; format: in vivo, human; conditions: 625 mg terbinafine base equivalent as hydrochloride orally once daily for 6 weeks, versus placebo, patients
Method: A prospective, double-blind, parallel-group, multi-center, placebo-controlled study comparing the safety and efficacy of 625 mg of terbinafine base equivalent as hydrochloride daily, or a molar equivalent in other acid addition salt or free base form, for 6 weeks, versus placebo in the treatment of chronic rhinosinusitis is performed. The study duration is a total of 18 weeks and consists of three periods: a) screening (3 weeks, from week −3 to −1); b) treatment (6 weeks, from baseline of treatment week to week +6); and c) follow-up assessment (9 weeks, from week +7 to +15).
Sixty patients, male and female, between the age of 18 and 65 years, are randomized to receive six weeks of terbinafine therapy or placebo.
Additional inclusion criteria for admission to the study is as follows: • Patients with signs and symptoms of chronic non-invasive rhinosinusitis (CRS) for at least 3 months prior to screening. […]

[2] = test system: molds and dimorphic fungi, pathogenic yeasts of the genera Pityrosporum, Candida and Rhodotorula; conditions: many pathogenic yeasts (Pityrosporum, Candida, Rhodotorula); cited from earlier work
[3] = test system: ergosterol biosynthesis (squalene epoxidase); conditions: blocks squalene epoxidase; cited from earlier work

SMILES: CN(C/C=C/C#CC(C)(C)C)Cc1cccc2ccccc12 [Terbinafine]
- efficacy relative to primary (CT total opacification score) and secondary variables [1]: therapeutically effective regimen
- activity in vitro [2]: active in vitro
- inhibition of ergosterol biosynthesis [3]: potent inhibitor
